The values below are quoted from earlier work in patent US6733793B2, “Oral composition with insulin-like activities and methods of use” (MetaProteomics, LLC, priority 2002, dated 2004).

Data set [1] deals with bovine papilloma virus DNA-tranfected C3H/10T1/2 cells. As to conditions: in vitro, bovine papilloma virus DNA-transfected C3H/10T1/2 cells.
For data set [2] the following is noted: rats, inhaled.

For `O=S(=O)([O-])[O-].[O]=[V+2]` [Vanadyl sulfate], in the data set on fruit fly, the “Chromosomal damage and mitotic recombination” value is “induce chromosomal damage and mitotic recombination”. Further, the Tumor promotion activity entry in data set [1] is reported as “possess tumor promotion activity”. In addition, the Pulmonary inflammation result in data set [2] is listed as “induce pulmonary inflammation”.
